In patent US7053215B2, “Substituted Quinazolin-4(3H)-one compounds, compositions, and methods for their use” (Amgen SF, LLC, priority 2000, dated 2006):

- melting point: 159.2 °C
SMILES: CC(c1nc2ccccc2c(=O)n1-c1ccc(F)cc1)N(Cc1ccccn1)C(=O)Cc1ccc(C(F)(F)F)cc1.Cl (stereo not shown)
